What all share (type): biochemical
The target in one assay is Sap3 of Candida albicans (Candida albicans, UniProt P0CY29). The assay is described as follows: Inhibition of proteolytic activity of Sap3 (resorufin-marked casein, fluorescence). On the procedure:
(§1) For this purpose, that inhibitor concentration was determined in vitro at which the proteolytic activity of the enzyme or its velocity of metabolizing a substrate, respectively, was reduced for 50%.
(§2) The proteolytic activity of the tested Saps was determined at the pH optimum of those Saps. Resorufin-marked casein was used as substrate. Proteolysis of casein can be detected by an increase in fluorescence due to released resorufin (a fluorescence marker) by proteolysis.
(§3) Sap1, Sap3 and Sap6 of Candida albicans were independently dissolved in 2-(N-morpholino)ethanesulfonic acid (MES) having a concentration of 10 mmol/l and a pH of 6.5 resulting in enzyme solutions having a Sap concentration of 100 mmol/l. After one hour incubation at room temperature, 80 μl of a substrate solution comprising resorufin-marked casein in a sodium citrate buffer having a concentration of 500 mmol/l and a pH of 3.5 (in case of Sap3), 4.5 (in case of Sap1) and 5.0 (in case of Sap6) were added to 20 μl of enzyme solution. The resulting Sap concentration was 5 nmol/l. The resulting casein concentration was chosen such that the Saps could work in excess of substrate. Different Sap inhibitors were added, resulting in a final inhibitor concentration of 1 nmol/1, 2 nmol/1, 5 nmol/1, 10 nmol/l, nmol/l or 50 nmol/l in each case. One enzyme-substrate sample was left without addition of inhibitor. All experiments were performed in triplicate.
(§4) The mixture of enzyme and substrate or of enzyme, substrate and inhibitor was incubated at 37° C. under agitation at 300 rpm (rounds per minute) for 60 min in each case. Afterwards, 20 μl of a trichloroacetic acid solution (30%, w/v) were added. The mixture was placed on ice for 5 minutes and centrifuged afterwards for 3 min at 6000 rpm. The supernatant was removed.
(§5) To carry out fluorescence measurements, 100 μl of the supernatant were mixed with 100 μl Tris-HCl (trishydroxymethylaminomethane-HCl) having a concentration of 1 mol/l and a pH of 10.0. The fluorescence of this mixture was measured directly after adding Tris-HCl using an excitation wavelength of 530 nm and an emission wavelength of 590 nm on a CytoFluor 2350 apparatus (Millipore, Bedford, Mass., USA), wherein sensitivity was set to 2 and bandwidth was set to 7.
(§6) The average of three independent fluorescence measurements was calculated. The fluorescence of enzyme without inhibitor (i.e. inhibitor concentration of 0 nmol/l) was set to 100% enzyme activity. The activity of inhibited enzyme was calculated accordingly from the fluorescence of inhibited enzyme with respect to fluorescence of enzyme without inhibitor. Finally, the enzyme activity was plotted against the inhibitor concentration and the IC50 value was determined.

For a further assay, the target named is Sap6 of Candida albicans (Candida albicans, UniProt Q5AC08). Briefly: Inhibition of proteolytic activity of Sap6 (resorufin-marked casein, fluorescence). The settings on record: for effect on Sap 6: versus pepstatin A. As to the method: as §1, §2, §3, §4, §5, §6
Chain of Sap6 of Candida albicans (Q5AC08 77-418): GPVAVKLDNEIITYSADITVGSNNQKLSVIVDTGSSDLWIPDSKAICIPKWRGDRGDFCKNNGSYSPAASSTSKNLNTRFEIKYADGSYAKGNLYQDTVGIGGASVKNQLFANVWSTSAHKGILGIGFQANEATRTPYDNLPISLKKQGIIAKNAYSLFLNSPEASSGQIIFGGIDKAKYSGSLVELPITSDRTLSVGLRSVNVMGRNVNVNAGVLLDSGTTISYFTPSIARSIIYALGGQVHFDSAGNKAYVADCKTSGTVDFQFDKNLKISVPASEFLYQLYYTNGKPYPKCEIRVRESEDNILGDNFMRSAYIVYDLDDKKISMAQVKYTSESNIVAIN
Another assay has as its target Sap1 of Candida albicans (Candida albicans, UniProt P0CY27). Briefly: Inhibition of proteolytic activity of Sap1 (resorufin-marked casein, fluorescence). On the procedure: as §1, §2, §3, §4, §5, §6

Structures are written as SMILES. Starred links: 1 amine or outer side, 2 acyl side, 3 side chain; linkers in the order of their positions; H or OH if unused. Non-standard residues stand in square brackets, D forms with d. Residues, ends and D or L forms follow the SMILES beside them. *: point of attachment. X1 = CC(F)(F)C[C@H](N[*:1])C(=O)[*:2]; Sta = CC(C)C[C@H](N)[C@@H](O)CC(=O)O; Isovaleryl = CC(C)CC(=O)*; Orn = NCCC[C@H](N)C(=O)O; Abu = CC[C@H](N)C(=O)O A value given as a limit tells only on which side of the number the result lay.

A word on the IC50: it is the concentration at which inhibition is half-maximal. Lower therefore signals greater potency.

Chain of Sap3 of Candida albicans (P0CY29 59-398): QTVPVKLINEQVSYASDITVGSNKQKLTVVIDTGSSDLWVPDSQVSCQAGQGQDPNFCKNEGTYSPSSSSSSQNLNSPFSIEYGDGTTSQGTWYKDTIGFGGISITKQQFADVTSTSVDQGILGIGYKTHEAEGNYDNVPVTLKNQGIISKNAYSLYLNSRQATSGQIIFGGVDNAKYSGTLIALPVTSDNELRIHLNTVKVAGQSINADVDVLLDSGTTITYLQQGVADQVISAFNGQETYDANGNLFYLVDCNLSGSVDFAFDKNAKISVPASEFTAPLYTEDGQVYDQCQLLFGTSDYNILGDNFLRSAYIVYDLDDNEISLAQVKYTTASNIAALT
Chain of Sap1 of Candida albicans (P0CY27 51-391): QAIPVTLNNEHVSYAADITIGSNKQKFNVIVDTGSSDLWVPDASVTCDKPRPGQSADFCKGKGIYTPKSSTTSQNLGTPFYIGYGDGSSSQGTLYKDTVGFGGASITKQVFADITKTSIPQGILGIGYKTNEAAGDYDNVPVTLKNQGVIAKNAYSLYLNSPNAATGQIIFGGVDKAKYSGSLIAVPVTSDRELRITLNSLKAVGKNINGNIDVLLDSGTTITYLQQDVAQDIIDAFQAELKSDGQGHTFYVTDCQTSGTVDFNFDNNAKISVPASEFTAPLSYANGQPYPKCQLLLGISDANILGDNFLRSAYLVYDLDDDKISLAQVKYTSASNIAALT

As to `CC(C)CC(=O)N[C@@H](CC(C)C)C(=O)N[C@H](C(=O)N[C@@H](CC(C)C)[C@@H](O)CC(=O)N[C@@H](C)C(=O)N[C@@H](CC(C)C)[C@@H](O)CC(=O)O)C(C)C` [P3(Leu)-pepstatin, (N-Iva-Leu)-Val-Sta-Ala-Sta, reference compound] (Isovaleryl-LV[Sta]A[Sta]-OH), the IC50 was less than 5 nM against Sap3 of Candida albicans, more than 500 nM on Sap6 of Candida albicans and more than 500 nM against Sap1 of Candida albicans.
Consider `CC(C)CC(=O)N[C@H](C(=O)N[C@@H](CC(C)C)C(=O)N[C@@H](CC(C)C)[C@@H](O)CC(=O)N[C@@H](C)C(=O)N[C@@H](CC(C)C)[C@@H](O)CC(=O)O)C(C)C` [P2(Leu)-pepstatin, (N-Iva-Val)-Leu-Sta-Ala-Sta, reference compound] (Isovaleryl-VL[Sta]A[Sta]-OH), for which the results for the IC50 against Sap3 of Candida albicans, at Sap6 of Candida albicans and against Sap1 of Candida albicans were 100 nM, approximately 200 nM and more than 500 nM, respectively.
On to `CC(C)CC(=O)N[C@@H](Cc1ccc(O)cc1)C(=O)N[C@H](C(=O)N[C@@H](CC(C)C)[C@@H](O)CC(=O)N[C@@H](C)C(=O)N[C@@H](CC(C)C)[C@@H](O)CC(=O)O)C(C)C` [P3(Tyr)-pepstatin, (N-Iva-Tyr)-Val-Sta-Ala-Sta] (Isovaleryl-YV[Sta]A[Sta]-OH), for which the IC50 against Sap3 of Candida albicans, against Sap6 of Candida albicans and on Sap1 of Candida albicans was less than 5 nM each time. The “effect on Sap 6” value at Sap6 of Candida albicans is given as “increased effects on Sap 6”. For the same molecule, at Sap1 of Candida albicans (versus pepstatin A), the “effectiveness against Sap1 compared with pepstatin A” value is “more effective against Sap1 than pepstatin A itself”.
`CC[C@H](NC(=O)[C@@H](NC(=O)CC(C)C)C(C)C)C(=O)N[C@@H](CC(C)C)[C@@H](O)CC(=O)N[C@@H](C)C(=O)N[C@@H](CC(C)C)[C@@H](O)CC(=O)O` [P2(Abu)-pepstatin, (N-Iva-Val)-Abu-Sta-Ala-Sta, reference compound] (Isovaleryl-V[Abu][Sta]A[Sta]-OH): the 50% inhibitory concentration (IC50) against Sap3 of Candida albicans was less than 5 nM; on Sap6 of Candida albicans, approximately 20 nM; on Sap1 of Candida albicans, approximately 50 nM.
The matching figures for `CC(C)(C)NC(=O)[C@@H]1C[C@@H]2CCCC[C@@H]2CN1C[C@@H](O)[C@H](Cc1ccccc1)NC(=O)[C@H](CC(N)=O)NC(=O)c1ccc2ccccc2n1` [Saquinavir, reference compound]: approximately 200000 nM, more than 312000 nM and approximately 50000 nM.
Consider `Cc1c(O)cccc1C(=O)N[C@@H](CSc1ccccc1)[C@H](O)CN1C[C@H]2CCCC[C@H]2C[C@H]1C(=O)NC(C)(C)C` [Nelfinavir, reference compound], for which the IC50 is more than 312000 nM against Sap3 of Candida albicans and approximately 250000 nM at Sap1 of Candida albicans.
As for `CC(C)CC(=O)N[C@H](C(=O)N[C@@H](CC(C)(F)F)C(=O)N[C@@H](CC(C)C)[C@@H](O)CC(=O)N[C@@H](C)C(=O)N[C@@H](CC(C)C)[C@@H](O)CC(=O)O)C(C)C` [P2(DfpGly)-pepstatin, (N-Iva-Val)-DfpGly-Sta-Ala-Sta] (Isovaleryl-V[X1][Sta]A[Sta]-OH), the IC50 against Sap3 of Candida albicans was approximately 5 nM; against Sap6 of Candida albicans, approximately 15 nM; against Sap1 of Candida albicans, approximately 20 nM.
As to `CC(C)CC(=O)N[C@H](C(=O)N[C@H](C(=O)N[C@@H](CC(C)C)[C@@H](O)CC(=O)N[C@@H](CCCNC(=N)N)C(=O)N[C@@H](CC(C)C)[C@@H](O)CC(=O)O)C(C)C)C(C)C` [P1'(Arg)-pepstatin, (N-Iva-Val)-Val-Sta-Arg-Sta] (Isovaleryl-VV[Sta]R[Sta]-OH), the IC50 was less than 5 nM on Sap3 of Candida albicans, less than 5 nM against Sap6 of Candida albicans and approximately 10 nM at Sap1 of Candida albicans. Further, on Sap6 of Candida albicans, the “effect on Sap 6” value is listed as “increased effects on Sap 6”.
Consider `CC(C)CC(=O)N[C@H](C(=O)N[C@H](C(=O)N[C@@H](CC(C)C)[C@@H](O)CC(=O)N[C@@H](CCCN)C(=O)N[C@@H](CC(C)C)[C@@H](O)CC(=O)O)C(C)C)C(C)C` [P1'(Orn)-pepstatin, (N-Iva-Val)-Val-Sta-Orn-Sta] (Isovaleryl-VV[Sta][Orn][Sta]-OH), for which the half-maximal inhibitory concentration (IC50) was approximately 15 nM against Sap3 of Candida albicans, approximately 30 nM against Sap6 of Candida albicans and approximately 20 nM against Sap1 of Candida albicans.

These data come from patent US8809498B2, “Pepstatin A derivatives” (priority 2008, dated 2014).
